The source made the active and inactive calls. How the calls were made is not given here.
Test system: CCRIS mutagenicity, Ames/micronucleus/aberration tests
Test: CCRIS mutagenicity studies
[1] = Test System: AMES SALMONELLA TYPHIMURIUM, Strain/Indicator: TA98, Metabolic Activation: NONE, Method: STANDARD PLATE
[2] = Test System: AMES SALMONELLA TYPHIMURIUM, Strain/Indicator: TA100, Metabolic Activation: NONE, Method: STANDARD PLATE
[3] = Test System: AMES SALMONELLA TYPHIMURIUM, Strain/Indicator: TA98, Metabolic Activation: NONE, Method: PREINCUBATION
[4] = Test System: AMES SALMONELLA TYPHIMURIUM, Strain/Indicator: TA100, Metabolic Activation: NONE, Method: PREINCUBATION

With O=[N+]([O-])C1=Cc2ccc3ccc4cccc5cc1c2c3c45 as the molecule, how does the mutagenic call [1] read?
The mutagenic call was “active; positive”.

And the mutagenic call (Test System: AMES SALMONELLA TYPHIMURIUM, Strain/Indicator: TA98, Metabolic Activation: RAT, LIVER, S-9, AROCLOR 1254, Method: STANDARD PLATE)?
Its mutagenic call is “active; positive”.

And the mutagenic call [2]?
The mutagenic call was “active; positive”.

What about the mutagenic call (Test System: AMES SALMONELLA TYPHIMURIUM, Strain/Indicator: TA100, Metabolic Activation: RAT, LIVER, S-9, AROCLOR 1254, Method: STANDARD PLATE) of the same molecule?
The mutagenic call was “inactive; negative”.

And the mutagenic call (Test System: AMES SALMONELLA TYPHIMURIUM, Strain/Indicator: TA1535, Metabolic Activation: NONE, Method: STANDARD PLATE)?
The mutagenic call was “inactive; negative”.

What about the mutagenic call (Test System: AMES SALMONELLA TYPHIMURIUM, Strain/Indicator: TA1535, Metabolic Activation: RAT, LIVER, S-9, AROCLOR 1254, Method: STANDARD PLATE) of the same molecule?
Its mutagenic call is “inactive; negative”.

What about the mutagenic call (Test System: AMES SALMONELLA TYPHIMURIUM, Strain/Indicator: TA1537, Metabolic Activation: NONE, Method: STANDARD PLATE) of the same molecule?
The mutagenic call was “active; positive”.

And the mutagenic call (Test System: AMES SALMONELLA TYPHIMURIUM, Strain/Indicator: TA1537, Metabolic Activation: RAT, LIVER, S-9, AROCLOR 1254, Method: STANDARD PLATE)?
Its mutagenic call is “active; positive”.

And the mutagenic call (Test System: AMES SALMONELLA TYPHIMURIUM, Strain/Indicator: TA1538, Metabolic Activation: NONE, Method: STANDARD PLATE)?
Its mutagenic call is “active; positive”.

What about the mutagenic call (Test System: AMES SALMONELLA TYPHIMURIUM, Strain/Indicator: TA1538, Metabolic Activation: RAT, LIVER, S-9, AROCLOR 1254, Method: STANDARD PLATE) of the same molecule?
Its mutagenic call is “active; positive”.

Which mutagenic call (Test System: AMES SALMONELLA TYPHIMURIUM, Strain/Indicator: TA98(1,8-DNP), Metabolic Activation: NONE, Method: PREINCUBATION) does the source give for O=[N+]([O-])c1ccc(Nc2ncnc3nc[nH]c23)cc1 here?
The mutagenic call was “inactive; negative”.

What about the mutagenic call (Test System: AMES SALMONELLA TYPHIMURIUM, Strain/Indicator: TA98(1,8-DNP), Metabolic Activation: RAT, LIVER, S-9, PCB, Method: PREINCUBATION) of the same molecule?
Its mutagenic call is “inactive; negative”.

And the mutagenic call (Test System: AMES SALMONELLA TYPHIMURIUM, Strain/Indicator: TA98(NR), Metabolic Activation: NONE, Method: PREINCUBATION)?
The mutagenic call was “inactive; negative”.

What about the mutagenic call (Test System: AMES SALMONELLA TYPHIMURIUM, Strain/Indicator: TA98(NR), Metabolic Activation: RAT, LIVER, S-9, PCB, Method: PREINCUBATION) of the same molecule?
Its mutagenic call is “inactive; negative”.

And the mutagenic call [3]?
Its mutagenic call is “inactive; negative”.

What about the mutagenic call (Test System: AMES SALMONELLA TYPHIMURIUM, Strain/Indicator: TA98, Metabolic Activation: RAT, LIVER, S-9, PCB, Method: PREINCUBATION) of the same molecule?
Its mutagenic call is “inactive; negative”.

And the mutagenic call (Test System: AMES SALMONELLA TYPHIMURIUM, Strain/Indicator: TA100(1,8-DNP), Metabolic Activation: NONE, Method: PREINCUBATION)?
The mutagenic call was “inactive; negative”.

And the mutagenic call (Test System: AMES SALMONELLA TYPHIMURIUM, Strain/Indicator: TA100(1,8-DNP), Metabolic Activation: RAT, LIVER, S-9, PCB, Method: PREINCUBATION)?
Its mutagenic call is “inactive; negative”.

What about the mutagenic call (Test System: AMES SALMONELLA TYPHIMURIUM, Strain/Indicator: TA100(NR), Metabolic Activation: NONE, Method: PREINCUBATION) of the same molecule?
The mutagenic call was “inactive; negative”.

And the mutagenic call (Test System: AMES SALMONELLA TYPHIMURIUM, Strain/Indicator: TA100(NR), Metabolic Activation: RAT, LIVER, S-9, PCB, Method: PREINCUBATION)?
The mutagenic call was “inactive; negative”.

And the mutagenic call [4]?
Its mutagenic call is “inactive; negative”.

And the mutagenic call (Test System: AMES SALMONELLA TYPHIMURIUM, Strain/Indicator: TA100, Metabolic Activation: RAT, LIVER, S-9, PCB, Method: PREINCUBATION)?
The mutagenic call was “inactive; negative”.

What about the mutagenic call (Test System: AMES SALMONELLA TYPHIMURIUM, Strain/Indicator: YG1020, Metabolic Activation: NONE, Method: PREINCUBATION) of the same molecule?
The mutagenic call was “inactive; negative”.

And the mutagenic call (Test System: AMES SALMONELLA TYPHIMURIUM, Strain/Indicator: YG1020, Metabolic Activation: RAT, LIVER, S-9, PCB, Method: PREINCUBATION)?
The mutagenic call was “inactive; negative”.

What about the mutagenic call (Test System: AMES SALMONELLA TYPHIMURIUM, Strain/Indicator: YG1021, Metabolic Activation: NONE, Method: PREINCUBATION) of the same molecule?
Its mutagenic call is “inactive; negative”.

And the mutagenic call (Test System: AMES SALMONELLA TYPHIMURIUM, Strain/Indicator: YG1021, Metabolic Activation: RAT, LIVER, S-9, PCB, Method: PREINCUBATION)?
Its mutagenic call is “inactive; negative”.

And the mutagenic call (Test System: AMES SALMONELLA TYPHIMURIUM, Strain/Indicator: YG1024, Metabolic Activation: NONE, Method: PREINCUBATION)?
Its mutagenic call is “inactive; negative”.

And the mutagenic call (Test System: AMES SALMONELLA TYPHIMURIUM, Strain/Indicator: YG1024, Metabolic Activation: RAT, LIVER, S-9, PCB, Method: PREINCUBATION)?
The mutagenic call was “inactive; negative”.

What about the mutagenic call (Test System: AMES SALMONELLA TYPHIMURIUM, Strain/Indicator: YG1025, Metabolic Activation: NONE, Method: PREINCUBATION) of the same molecule?
The mutagenic call was “inactive; negative”.

And the mutagenic call (Test System: AMES SALMONELLA TYPHIMURIUM, Strain/Indicator: YG1025, Metabolic Activation: RAT, LIVER, S-9, PCB, Method: PREINCUBATION)?
The mutagenic call was “inactive; negative”.

What about the mutagenic call (Test System: AMES SALMONELLA TYPHIMURIUM, Strain/Indicator: YG1026, Metabolic Activation: NONE, Method: PREINCUBATION) of the same molecule?
Its mutagenic call is “inactive; negative”.

And the mutagenic call (Test System: AMES SALMONELLA TYPHIMURIUM, Strain/Indicator: YG1026, Metabolic Activation: RAT, LIVER, S-9, PCB, Method: PREINCUBATION)?
The mutagenic call was “inactive; negative”.

What about the mutagenic call (Test System: AMES SALMONELLA TYPHIMURIUM, Strain/Indicator: YG1029, Metabolic Activation: NONE, Method: PREINCUBATION) of the same molecule?
The mutagenic call was “inactive; negative”.

What about the mutagenic call (Test System: AMES SALMONELLA TYPHIMURIUM, Strain/Indicator: YG1029, Metabolic Activation: RAT, LIVER, S-9, PCB, Method: PREINCUBATION) of the same molecule?
The mutagenic call was “inactive; negative”.

How did the mutagenic call (Test System: CHINESE HAMSTER OVARY, Strain/Indicator: CHO-K1-BH4 (HGPRT)/6-THIOGUANINE, Metabolic Activation: RAT, LIVER, S-9, AROCLOR (4%)) turn out when c1ccc2c(c1)sc1ccccc12 was run?
Its mutagenic call is “inactive; negative”.

What does the source list for CC(C)(C)OOC(C)(C)C?
mutagenic call (Test System: AMES SALMONELLA TYPHIMURIUM, Strain/Indicator: TA97, Metabolic Activation: HAMSTER, LIVER, S-9, AROCLOR 1254 (10%), Method: PREINCUBATION): inactive; negative; mutagenic call (Test System: AMES SALMONELLA TYPHIMURIUM, Strain/Indicator: TA97, Metabolic Activation: HAMSTER, LIVER, S-9, AROCLOR 1254 (30%), Method: PREINCUBATION): inactive; negative; mutagenic call (Test System: AMES SALMONELLA TYPHIMURIUM, Strain/Indicator: TA97, Metabolic Activation: NONE, Method: PREINCUBATION): inactive; negative; mutagenic call (Test System: AMES SALMONELLA TYPHIMURIUM, Strain/Indicator: TA97, Metabolic Activation: RAT, LIVER, S-9, AROCLOR 1254 (10 OR 30%), Method: PREINCUBATION): inactive; negative; mutagenic call (Test System: AMES SALMONELLA TYPHIMURIUM, Strain/Indicator: TA98, Metabolic Activation: HAMSTER, LIVER, S-9, AROCLOR 1254 (10%), Method: PREINCUBATION): inactive; negative; mutagenic call (Test System: AMES SALMONELLA TYPHIMURIUM, Strain/Indicator: TA98, Metabolic Activation: HAMSTER, LIVER, S-9, AROCLOR 1254 (30%), Method: PREINCUBATION): inactive; negative; mutagenic call [3]: inactive; negative; mutagenic call (Test System: AMES SALMONELLA TYPHIMURIUM, Strain/Indicator: TA98, Metabolic Activation: RAT, LIVER, S-9, AROCLOR 1254 (10 OR 30%), Method: PREINCUBATION): inactive; negative; mutagenic call (Test System: AMES SALMONELLA TYPHIMURIUM, Strain/Indicator: TA100, Metabolic Activation: HAMSTER, LIVER, S-9, AROCLOR 1254 (10%), Method: PREINCUBATION): inactive; negative; mutagenic call (Test System: AMES SALMONELLA TYPHIMURIUM, Strain/Indicator: TA100, Metabolic Activation: HAMSTER, LIVER, S-9, AROCLOR 1254 (30%), Method: PREINCUBATION): inactive; negative; mutagenic call [4]: inactive; negative; mutagenic call (Test System: AMES SALMONELLA TYPHIMURIUM, Strain/Indicator: TA100, Metabolic Activation: RAT, LIVER, S-9, AROCLOR 1254 (10 OR 30%), Method: PREINCUBATION): inactive; negative; mutagenic call (Test System: AMES SALMONELLA TYPHIMURIUM, Strain/Indicator: TA1535, Metabolic Activation: HAMSTER, LIVER, S-9, AROCLOR 1254 (10%), Method: PREINCUBATION): inactive; negative; mutagenic call (Test System: AMES SALMONELLA TYPHIMURIUM, Strain/Indicator: TA1535, Metabolic Activation: HAMSTER, LIVER, S-9, AROCLOR 1254 (30%), Method: PREINCUBATION): inactive; negative; mutagenic call (Test System: AMES SALMONELLA TYPHIMURIUM, Strain/Indicator: TA1535, Metabolic Activation: NONE, Method: PREINCUBATION): inactive; negative; mutagenic call (Test System: AMES SALMONELLA TYPHIMURIUM, Strain/Indicator: TA1535, Metabolic Activation: RAT, LIVER, S-9, AROCLOR 1254 (10 OR 30%), Method: PREINCUBATION): inactive; negative

O=[N+]([O-])c1cc2[nH]c3ccc4ccccc4c3c2c2ccc(O)cc12 was tested. Which mutagenic call [1] did it give?
The mutagenic call was “inactive; negative”.

What about the mutagenic call (Test System: AMES SALMONELLA TYPHIMURIUM, Strain/Indicator: TA98, Metabolic Activation: RAT, LIVER, S-9, 3-METHYLCHOLANTHRENE, Method: STANDARD PLATE) of the same molecule?
The mutagenic call was “active; positive”.

And the mutagenic call [2]?
The mutagenic call was “active; positive”.

And the mutagenic call (Test System: AMES SALMONELLA TYPHIMURIUM, Strain/Indicator: TA100, Metabolic Activation: RAT, LIVER, S-9, 3-METHYLCHOLANTHRENE, Method: STANDARD PLATE)?
Its mutagenic call is “active; positive”.

Source: PubChem BioAssay AID1259407 (Chemical Carcinogenesis Research Information System (CCRIS), 2018)
